Laboratory results published in PMC8522722, “Safety and Pharmacokinetics in Human Volunteers of Taniborbactam (VNRX-5133), a Novel Intravenous β-Lactamase Inhibitor” (Antimicrobial Agents and Chemotherapy, 2021).

Columns and labels:
[1] = Safety and tolerability, treatment-emergent adverse events, SAD part; assay type: in vivo, human
Procedure: (§1) Eligible subjects were randomized to receive either taniborbactam or placebo in a 3:1 ratio within dose cohorts in both the SAD and MAD parts of the study. Each dose cohort in the SAD part of the study enrolled 8 subjects, and each dose cohort in the MAD part of the study enrolled 12 subjects. In the SAD part, subjects received 62.5, 125, 250, 500, 1,000, or 1,500 mg taniborbactam as a 2-h intravenous (i.v.) infusion. In the MAD part, subjects received 2-h intravenous i.v. infusions of 250, 500, or 750 mg taniborbactam q8h over 10 days, ending after a final morning dose on day 10 (total of 28 doses).
(§2) Safety was assessed based on the occurrence of adverse events and evaluation of laboratory tests (chemistry, hematology, urinalysis), physical examination, vital signs, and 12-lead electrocardiograms (ECGs) that were performed throughout the study. Safety was followed through 7 days postdose in the SAD part and followed through 7 days post-last dose in the MAD part.

[2] = set-up: species or system human; conditions: in vivo
Procedure: as §1, §2

[3] = tested on: cefepime-resistant β-lactamase-producing pathogens; set-up: method as in ref 15, 16 = [15]; 15 Georgiou P-C , Siopi M , Tsala M , Lagarde C , Kloezen W , Donnelly R , Meletiadis J , Mouton J . 2018 . VNRX-5133, a novel broad-spectrum beta-lactamase inhibitor, enhances the activity of cefepim || [16]; 16 Weiss W , Pulse M , Nguyen P , Valtierra D , Peterson K , Carter K , Pevear D , Burns C , Xerri L . 2018 . Efficacy of cefepime/VNRX-5133, a novel beta-lactamase inhibitor combination, against ceph; conditions: cited from earlier work

With `NCCN[C@H]1CC[C@H](CC(=O)N[C@H]2Cc3cccc(C(=O)O)c3OB2O)CC1` [Taniborbactam] the “deaths, serious adverse events, adverse events leading to discontinuation” value ([1]; SAD and MAD parts) was “no deaths, serious adverse events, or adverse events leading to discontinuation”, the “Adverse event: Abdominal pain” value ([1]; in vivo) was 1 (2.8) No. (%) and the “Adverse event: Arthralgia” value ([1]; in vivo) was 1 (2.8) No. (%). The “Adverse event: Back pain” value ([1]; in vivo) was 1 (2.8) No. (%), the “Adverse event: Headache” value ([1]; in vivo) was 1 (2.8) No. (%) and the “Adverse event: Increased blood CPK” value ([1]; in vivo) was 1 (2.8) No. (%). The “Adverse event: Increased hepatic enzyme” value ([1]; in vivo) was 1 (2.8) No. (%), the “Adverse event: Migraine” value ([1]; in vivo) was 1 (2.8) No. (%) and the “Adverse event: Nausea” value ([1]; in vivo) was 1 (2.8) No. (%). The “Adverse event: Pharyngitis” value ([1]; in vivo) was 0 (0.0) No. (%), the “Adverse event: Viral URI” value ([1]; in vivo) was 1 (2.8) No. (%) and the “Adverse event: Vomiting” value ([1]; in vivo) was 1 (2.8) No. (%). The “changes in vital signs, clinical laboratory evaluations, ECGs, physical examinations” value ([1]; in vivo) was “no clinically significant changes”, the “subjects with adverse events considered by the investigator to be related to treatment” value ([1]; in vivo) was 1 subject and the “subjects with adverse events considered by the investigator to be treatment related” value [2] was 4 subjects. The “in vivo efficacy of cefepime” value [3] was “restored the in vivo efficacy of cefepime”.
